Test results published in the supplement of paper PMC13380429.

How the values were obtained:
Calu-3 [1] = assay: drug sensitivity score (DSS) for viability; higher = more toxic; extreme values may be limits of the assay; conditions: 72 h
Caco-2 [2] = assay: as above; conditions: 72 h
Vero E6 [3] = assay: as above; conditions: 72 h
HepG2 [4] = assay: as above; conditions: 72 h
U2OS [5] = assay: as above; conditions: 72 h
A549-ACE2 = assay: drug-induced phospholipidosis relative to tamoxifen; higher = more phospholipidosis
[6] = tested on: A549-ACE2 infected with SARS-CoV-2; assay: cell count relative to DMSO; higher = less toxic; conditions: 24 h
Calu-3 [7] = assay: relative viability EC50 (midpoint between 100% and the lowest measured viability); higher = less toxic; conditions: 72 h
Caco-2 [8] = assay: as above; conditions: 72 h
Vero E6 [9] = assay: as above; conditions: 72 h
HepG2 [10] = assay: as above; conditions: 72 h
U2OS [11] = assay: as above; conditions: 72 h
[12] = tested on: A549-ACE2 infected with SARS-CoV-2; assay: morphology score (similarity to uninfected cells); higher = more like uninfected cells; conditions: 24 h
[13] = tested on: A549-ACE2 infected with SARS-CoV-2; assay: SARS-CoV-2 infection rate relative to DMSO; higher = more infection; conditions: 24 h
Calu-3 [14] = assay: cell viability relative to DMSO; higher = less toxic; conditions: 72 h
Caco-2 [15] = assay: as above; conditions: 72 h
Vero E6 [16] = assay: as above; conditions: 72 h
HepG2 [17] = assay: as above; conditions: 72 h
U2OS [18] = assay: as above; conditions: 72 h

C=C1C(=O)O[C@@H]2/C=C(\C)CC/C=C(\C)CC[C@@H]12 [costunolide]
Conditions | drug sensitivity score | relative viability EC50 [µM]
Caco-2 [2] | 0.9 | –
Caco-2 [8] | – | > 10
Calu-3 [1] | 0 | –
Calu-3 [7] | – | > 10
HepG2 [4] | 0 | –
HepG2 [10] | – | > 10
U2OS [5] | 0 | –
U2OS [11] | – | > 10
Vero E6 [3] | 0 | –
Vero E6 [9] | – | > 10

drug-induced phospholipidosis [%], A549-ACE2
Conditions | 0.3 µM | 0.833333 µM | 3.33333 µM | 6.66667 µM | 10 µM | 30 µM
24 h | 0.39 | -3.23 | 0.77 | 4.32 | 10.4 | 39.6
48 h | 2.36 | -2.51 | 0.025 | 1.2 | 4.57 | 14.4
72 h | 2.1 | -1.84 | -1.2 | -0.442 | 1.25 | 9.89

Conditions | SARS-CoV-2 infection rate, [13] [%] | cell count, [6] [%] | cell viability, Caco-2 [15] [%] | cell viability, Calu-3 [14] [%] | cell viability, HepG2 [17] [%] | cell viability, U2OS [18] [%] | cell viability, Vero E6 [16] [%] | morphology score, [12]
1 nM | – | – | 96.5 | 117 | 99.7 | 96.3 | 98.6 | –
10 nM | – | – | 92.8 | 102 | 108 | 99.8 | 91.9 | –
100 nM | – | – | 91.1 | 98.7 | 92.9 | 94.3 | 99.1 | –
0.3 µM | 103 | 104 | – | – | – | – | – | 0.19
1000 nM | – | – | 86.6 | 94.5 | 97.3 | 96.8 | 97.8 | –
3 µM | 104 | 97 | – | – | – | – | – | -0.19
10 µM | 106 | 99 | – | – | – | – | – | -0.21
10000 nM | – | – | 87.1 | 105 | 91.5 | 94.7 | 93.4 | –
30 µM | 66 | 70 | – | – | – | – | – | 0.15

COc1cc(NC(C)CCCN)c2ncccc2c1 (stereo not given) [primaquine]
Conditions | drug sensitivity score | relative viability EC50 [µM]
Caco-2 [2] | 4 | –
Caco-2 [8] | – | 2.25
Calu-3 [1] | 0.8 | –
Calu-3 [7] | – | > 10
HepG2 [4] | 0.3 | –
HepG2 [10] | – | > 10
U2OS [5] | 0 | –
U2OS [11] | – | > 10
Vero E6 [3] | 0 | –
Vero E6 [9] | – | > 10

A549-ACE2, 0.3 µM
Conditions | drug-induced phospholipidosis [%]
24 h | 2.39
48 h | 2.15
72 h | 2.76

Conditions | SARS-CoV-2 infection rate, [13] [%] | cell count, [6] [%] | cell viability, Caco-2 [15] [%] | cell viability, Calu-3 [14] [%] | cell viability, HepG2 [17] [%] | cell viability, U2OS [18] [%] | cell viability, Vero E6 [16] [%] | morphology score, [12]
1 nM | – | – | 103 | 104 | 122 | 103 | 108 | –
10 nM | – | – | 108 | 90.7 | 107 | 102 | 105 | –
100 nM | – | – | 91.8 | 106 | 108 | 102 | 99.7 | –
0.3 µM | 97 | 102 | – | – | – | – | – | -0.01
1000 nM | – | – | 93.9 | 100 | 110 | 101 | 102 | –
10000 nM | – | – | 45.2 | 76.9 | 80.3 | 88.9 | 89.9 | –

CC(=O)N(O)[C@@H]1c2cc(C#N)ccc2OC(C)(C)[C@H]1O
Conditions | drug sensitivity score | relative viability EC50 [µM]
Caco-2 [2] | 0 | –
Caco-2 [8] | – | > 10
Calu-3 [1] | 0 | –
Calu-3 [7] | – | > 10
HepG2 [4] | 0 | –
HepG2 [10] | – | > 10
Vero E6 [3] | 0 | –
Vero E6 [9] | – | > 10

drug-induced phospholipidosis [%], A549-ACE2
Conditions | 0.3 µM | 0.833333 µM | 3.33333 µM | 6.66667 µM | 10 µM | 30 µM
24 h | 5.83 | -1.4 | -3.17 | 0.06 | -1.41 | 3.58
48 h | 5.86 | -0.55 | -0.21 | -2.36 | -0.04 | 3.92
72 h | 1.36 | -4.06 | -1.89 | -2.87 | 0.112 | 6.24

Conditions | SARS-CoV-2 infection rate, [13] [%] | cell count, [6] [%] | cell viability, Caco-2 [15] [%] | cell viability, Calu-3 [14] [%] | cell viability, HepG2 [17] [%] | cell viability, Vero E6 [16] [%] | morphology score, [12]
1 nM | – | – | 102 | 103 | 101 | 94.6 | –
10 nM | – | – | 86.8 | 90.8 | 108 | 102 | –
100 nM | – | – | 93.1 | 89.9 | 95.8 | 96.5 | –
0.3 µM | 93 | 105 | – | – | – | – | 0.26
1000 nM | – | – | 104 | 102 | 107 | 102 | –
3 µM | 77 | 107 | – | – | – | – | 0.56
10 µM | 40 | 119 | – | – | – | – | 0.81
10000 nM | – | – | 99.7 | 95.2 | 105 | 95.6 | –
30 µM | 36 | 116 | – | – | – | – | 0.82

O=C(c1ccc(/C=C/c2n[nH]c3ccccc23)cc1)N1CCNCC1 [KW-2449]
Conditions | drug sensitivity score | relative viability EC50 [µM]
Caco-2 [2] | 0 | –
Caco-2 [8] | – | > 10
HepG2 [4] | 2.2 | –
U2OS [5] | 1.7 | –
Vero E6 [3] | 0 | –
Vero E6 [9] | – | > 10

drug-induced phospholipidosis [%], A549-ACE2
Conditions | 0.3 µM | 0.833333 µM | 3.33333 µM | 6.66667 µM | 10 µM
24 h | -0.51 | -0.69 | 3.6 | 13.3 | 8.57
48 h | -1.26 | -3.23 | 0.95 | 9.27 | 0.37
72 h | -0.724 | -3.37 | – | – | –

Conditions | SARS-CoV-2 infection rate, [13] [%] | cell count, [6] [%] | cell viability, Caco-2 [15] [%] | cell viability, HepG2 [17] [%] | cell viability, U2OS [18] [%] | cell viability, Vero E6 [16] [%] | morphology score, [12]
1 nM | – | – | 98.7 | 102 | 103 | 103 | –
10 nM | – | – | 98.6 | 108 | 102 | 104 | –
100 nM | – | – | 97.2 | 98.6 | 101 | 99.3 | –
0.3 µM | 98 | 105 | – | – | – | – | 0.33
1000 nM | – | – | 99 | 94.6 | 100 | 101 | –
3 µM | 79 | 59 | – | – | – | – | 0.51
10 µM | 26 | 39 | – | – | – | – | 0.62
10000 nM | – | – | 108 | 69.6 | 63.1 | 95.3 | –
30 µM | 40 | 1 | – | – | – | – | 0.12

CC(C)(C)Cn1c(N)nc2ccc(-c3[nH]c(C(C)(C)C)nc3-c3ccc(F)cc3)nc21
Conditions | drug sensitivity score | relative viability EC50 [µM]
Caco-2 [2] | 2.9 | –
Calu-3 [1] | 6.1 | –
HepG2 [4] | 0.6 | –
HepG2 [10] | – | > 10
U2OS [5] | 1.2 | –
U2OS [11] | – | > 10
Vero E6 [3] | 6.7 | –

drug-induced phospholipidosis [%], A549-ACE2
Conditions | 0.3 µM | 0.833333 µM | 3.33333 µM | 6.66667 µM | 10 µM | 30 µM
24 h | -0.05 | -0.99 | 3.52 | 13.5 | 24.9 | 60.6
48 h | 1.57 | 1.82 | 5.06 | 15.9 | 25.2 | 57.1
72 h | 2.63 | 3.92 | 4.98 | 13.2 | 27 | –

Conditions | SARS-CoV-2 infection rate, [13] [%] | cell count, [6] [%] | cell viability, Caco-2 [15] [%] | cell viability, Calu-3 [14] [%] | cell viability, HepG2 [17] [%] | cell viability, U2OS [18] [%] | cell viability, Vero E6 [16] [%] | morphology score, [12]
1 nM | – | – | 102 | 107 | 97 | 99 | 93.2 | –
10 nM | – | – | 98.1 | 94.6 | 92.8 | 98.4 | 94.5 | –
100 nM | – | – | 89.6 | 85.5 | 100 | 95.2 | 83.6 | –
0.3 µM | 118 | 87 | – | – | – | – | – | -0.39
1000 nM | – | – | 86.6 | 75.3 | 94.9 | 91.7 | 72.4 | –
3 µM | 8 | 129 | – | – | – | – | – | 0.95
10 µM | 4 | 124 | – | – | – | – | – | 0.96
10000 nM | – | – | 68 | 54.1 | 85.3 | 77.4 | 58.7 | –
30 µM | 8 | 100 | – | – | – | – | – | 0.66
